# In patent publication US20120165325A1, “Stable forms of N-(2,6-Dimethyl-4-morpholin-4-yl-phenyl)-3,3-dimethyl-butyramide” (H. Lundbeck A/S, priority 2009, published 2012):
# Marks after values point to notes of the source that are not given here.
# Experiments:
# [1] = tested on: Male Wistar rats; assay: Amphetamine challenge: antagonism of d-amphetamine induced hyperactivity; type: in vivo; conditions: rat; s.c. 30 min before d-amphetamine sulphate 0.5 mg/kg; motility over 2 hours; std. dev. in brackets
# Procedure: Subjects. Male Wistar rats (Taconic, Denmark) weighing 170-240 g are used. The animals were housed under a 12-hr light/dark cycle under controlled conditions for regular in-door temperature (21±2° C.) and humidity (55±5%) with food and tap water available ad libitum. Eight rats were used at each dose level and in the parallel control group receiving the vehicle to the test compound plus d-amphetamine and the group receiving vehicle injections only.
# Experimental procedure. The experiment was made in normal light conditions in an undisturbed room. The test substance was injected 30 min before s.c. before the injection of d-amphetamine sulphate (0.5 mg/kg). Immediately after injection of d-amphetamine, the rats were placed individually in the test cages that were placed in a U-frame, equipped with 4 infrared light sources and photocells. The light beams crossed the cage 4 cm above the cage floor. Recording of a motility count required interruption of adjacent light beams, thus avoiding counts induced by stationary movements of the rat. Motility (counts) was recorded for a period of 2 hours. The mean motility induced by vehicle (saline) treatment in the absence of d-amphetamine was used as baseline. The 100 percent effect of d-amphetamine was accordingly calculated to be total motility counts minus baseline. The response in groups receiving test compound was thus determined by the total motility counts minus baseline, expressed in percent of the similar result recorded in the parallel amphetamine control group. The percent responses were converted to percent inhibition from which ED50 values were calculated by means of log-probit analyses. In a parallel set of data, the potential sedative properties (motility inhibition) of the test compounds were evaluated using essentially the same procedure with the exception of not administering d-amphetamine-sulphate at the initiation of locomotor assessment.
# [2] = tested on: DA levels in the nucleus accumbens; assay: Microdialysis: DA levels in the nucleus accumbens of freely moving rats; type: in vivo, rat; conditions: for DA level in the nucleus accumbens, % of baseline: amphetamine 0.5 mg/kg s.c. + compound 5 mg/kg s.c.
# Procedure: Subjects. Male Sprague-Dawley rats (Charles River), initially weighing 275-300 g, were used. The animals were housed under a 12-hr light/dark cycle under controlled conditions for regular in-door temperature (21±2° C.) and humidity (55±5%) with food and tap water available ad libitum.
# Surgery. Animals were anaesthetized with hypnorm/dormicum (2 ml/kg s.c.) and intracerebral guide cannulas (CMA/12) were stereotaxically implanted, positioning the dialysis probe tip in the nucleus accumbens (co-ordinates: 1.7 mm anterior to bregma, −1.2 mm lateral to bregma, 8.0 mm ventral to the dura). Anchor screws and acrylic cement was applied for fixation of the guide cannula. The body temperature of the animals was maintained at 37° C. by means of a rectal probe and a heating plate. The rats were allowed to recover from surgery for 2 days, housed singly in cages.
# Experimental procedure. On the day of the experiment, a microdialysis probe (CMA/12, 0.5 mm diameter, 2 mm length) was inserted through the guide cannula of the conscious animal.
# The probes were connected to a microinjection pump via a dual channel swivel which allowed the animals unrestricted movements. Perfusion of the microdialysis probe with filtered Ringer solution (145 mM NaCl, 3 mM KCl, 1 mM MgCl2, 1.2 mM CaCl2) was maintained for the duration of the experiment at a constant flow rate of 1 μL/min. After 180 min of stabilisation, the experiments were initiated. Dialysates were collected every 20 min. After the experiments the rats were sacrificed by decapitation, their brains removed, frozen and sliced for probe placement verification.
# Administration of compounds. N-(2,6-dimethyl-4-morpholin-4-yl-phenyl)-3,3-dimethyl-butyramide (5 mg/kg) or vehicle (10% 2-hydroxy-propyl-beta-cyclodextrin, isotonic, pH 5-7) was administered subcutaneously in a volume of 2.5 ml/kg. Thirty min after the first administration dex-amphetamine sulphate (0.5 mg/kg s.c.) was administered.
# Analysis of dialvsate. The concentration of dopamine (DA) in the dialysates was assessed by means of HPLC with electrochemicl detection. The dialysate constitutents were separated by reverse phase liquid chromatography (ODS 150×3 mm, […]). Mobile phase consisted of 90 mM NaH2PO4, 50 mM sodium citrate, 367 mg/l sodium 1-octanesulfonic acid, 50 μM EDTA and 8% acetonitrile (pH 4.0) at a flow rate of 0.5 mL/min. Electrochemical detection of DA was accomplished using a coulometric detector; potential set at E1=−75 mV and E2=300 mV (guard cell at 350 mV) (Coulochem II, ESA). The dialysate levels of DA in the three dialyse samples preceding the administration of compound were averaged and used as baseline level of DA (100%).
# Statistical analysis. The dialysate levels of DA in the three dialyse samples preceding the administration of compound were averaged and used as baseline level of DA (100%). Data were analysed using repeated measure analyses of variance followed by post hoc tests (Tukey test), when appropriate. *p<0.05 were considered significant.
# [3] = tested on: Male NMRI mice; assay: Amphetamine sensitisation: inhibition of the sensitised behavioural response to amphetamine; type: in vivo, mouse; conditions: Mus musculus; amphetamine-pretreated mice; s.c. 30 min before D-amphetamine challenge 1.25 mg/kg s.c.; 30 min test; S.D. in brackets
# Procedure: Subjects. […] The animals were housed 6 mice pr cage in a 12-hr light/dark cycle under controlled conditions for regular in-door temperature (21±2° C.) and humidity (55±5%) with food and tap water available ad libitum.
# Experimental procedure. […] 5×8 infrared light sources and photocells interspaced by 4 cm monitor the locomotor activity.
# Administration of compounds.
# Data analyses. […] A therapeutic index value can subsequently be calculated by dividing the first ED50 by the second.
compound,measurement,setting,value
"Cc1cc(N2CCOCC2)cc(C)c1NC(=O)CC(C)(C)C [N-(2,6-dimethyl-4-morpholin-4-yl-phenyl)-3,3-dimethyl-butyramide]",ED50,[1],2.1 mg/kg
same,Effect on basal extracellular DA level in the nucleus accumbens,"[2]; freely moving rats, data not shown",did not significantly affected
same,"DA level in the nucleus accumbens, % of baseline",[2]; time 0 min (baseline sample),91 ± 4 % of baseline
same,"DA level in the nucleus accumbens, % of baseline",[2]; time 20 min,112 ± 12 % of baseline
same,"DA level in the nucleus accumbens, % of baseline",[2]; time 40 min,227 ± 46 % of baseline
same,"DA level in the nucleus accumbens, % of baseline",[2]; time 60 min,262 ± 53* % of baseline
same,"DA level in the nucleus accumbens, % of baseline",[2]; time 80 min,195 ± 38* % of baseline
same,"DA level in the nucleus accumbens, % of baseline",[2]; time 100 min,172 ± 24 % of baseline
same,"DA level in the nucleus accumbens, % of baseline",[2]; time 120 min,166 ± 32 % of baseline
same,"DA level in the nucleus accumbens, % of baseline",[2]; time 140 min,129 ± 35 % of baseline
same,"DA level in the nucleus accumbens, % of baseline",[2]; time −20 min (baseline sample),100 ± 3 % of baseline
same,"DA level in the nucleus accumbens, % of baseline",[2]; time −40 min (baseline sample),108 ± 5 % of baseline
same,ED50,[3],1.6 mg/kg
